Laboratory results taken from patent US7741337B2, “Azonafide derivatives, methods for their production and pharmaceutical compositions therefrom” (Unibioscreen S.A., priority 2005, dated 2010).

Key:
[1] = tested on: human cancer cell lines Hs683, U-373MG, HCT-15, LoVo, A549 and MCF-7; assay: MTT test, effect on overall cell growth (mean of six cell lines, examples 3 to 26); type: cell-based; conditions: mean of six cell lines Hs683, U-373MG, A549, MCF-7, 72 hours incubation, range of molar concentrations resulting in 50% inhibition of overall tumor cells growth
Method: (§1) MTT tests were performed in order to rapidly, i.e. within 5 days, measure the effect of azonafide derivatives of this invention on the overall cell growth. The test measures the number of metabolically active living cells that are able to transform the yellow product 3-(4,5-dimethylthiazol-2-yl)-2,5-diphenyl tetrazolium bromide (herein referred as MTT) into the blue product formazan dye by mitochondrial reduction. The amount of formazan obtained at the end of the experiment, measured by means of a spectrophotometer, is directly proportional to the number of living cells. Optical density determination thus enables a quantitative measurement of the effect of the investigated compounds as compared to the control condition (untreated cells) and/or to other reference compounds.
(§2) Height human cancer cell lines described in table 1 were used in the following MTT tests. These cell lines cover six histological cancer types, being prostate, glioma, pancreas, colon, lung and breast cancers. Cells were allowed to grow in 96-well micro-wells with a flat bottom with an amount of 100 μl of cell suspension per well with 1,000 to 4,000 cells/well depending on the cell type used. Each cell line was seeded in a well known MEM 5% serum culture medium.
(§3) The detailed experimental procedure was as following: after a 24-hour period of incubation at 37° C., the culture medium was replaced by 100 μl of fresh medium in which the compound to be tested was dissolved at the following molar concentrations: 10^−9 M, 5.10^−9 M, 10^−8 M, 5.10^−8 M, 10^−7 M, 5.10^−7 M, 10^−6 M, 5.10^−6 M and 10^−5 M. Each experiment was repeated 6 times.
(§4) After 72 hours of incubation at 37° C. with (experimental conditions) or without (control condition) the compound to be tested, the medium was replaced by 100 μl MTT dissolved in RPMI at a concentration of 1 mg/ml. The micro-wells were subsequently incubated during 3 hours at 37° C. and centrifuged at 400 g during 10 minutes. MTT was removed and formazan crystals formed were dissolved in 100 μl DMSO. The micro-wells were shaken for 5 minutes and read on a spectrophotometer at wavelengths of 570 nm (maximum formazan absorbance) and 630 nm (back-ground noise).
(§5) For each experimental condition, the mean optical density was calculated, as well as the percentage of remaining living cells in comparison with the control.
(§6) IC50 values for compounds of examples 3 to 26 were obtained on cell lines Hs683, U-373MG, HCT-15, LoVo, A549 and MCF-7 described in Table 1. IC50 values for compounds from examples 27 to 45 were obtained on cell lines PC3, U-373MG, BxPC3, LoVo, A549 and MCF-7 described in Table 1.

A549 (Lung cancer) cells = assay: Effect on cell migration, A549; type: cell-based; conditions: Homo sapiens, p value in same cell, read-out: Maximum effects (cell migration); for Emax at 0.01 µM / Emax at 0.1 µM: 22 hours on the 25% of most motile cells; for Emax at 0.01 µM: at 10^−8 M; for Emax at 0.1 µM: at 10^−7 M
Method: (§7) Cells of different cancer lines, i.e. U-373 MG (Glioma cancer), PC3 (prostate cancer and A549 (Lung cancer) were seeded on culture flask 48 hours before the migration experiment. On the test day, cells were treated with or without the azonafide derivatives mentioned in table 3 in closed Falcon dishes containing a buffered medium at a controlled temperature (37.0±0.1° C.) for 12 or 22 hours, as noted in the right column of table 3. The azonafide derivatives were used at three non-cytotoxic concentrations (10^−6 M, 10^−7, 10^−8 M). Migration of the cells was observed by means of a CCD-camera mounted on a phase-contrast microscope. Statistical analysis of the migration, with the non-parametric Mann-Whitney test, was established for 25% and 50% of the most motile cells and for the entire cell population.

[2] = tested on: PC3 (prostate cancer) cells; assay: Effect on cell migration, PC3; type: cell-based; conditions: Homo sapiens, 22 hours on the 25% of most motile cells, p value in same cell, read-out: Maximum effects (cell migration); for Emax at 0.01 µM: at 10^−8 M; for Emax at 1 µM: at 10^−6 M
Method: as §7

[3] = tested on: U-373 MG, PC-3 and/or A549 cancer cells; assay: Effect on cell migration, summary of table 3; type: cell-based, human; conditions: for migration level of cancer cells: U-373 MG, PC-3 and/or A549 cancer cells at the non-cytotoxic concentrations of this study; for cell migration activity compared with the closest compounds known in the art: comparison drawn from table 3
Method: as §7

[4] = tested on: U-373 MG (Glioma cancer) cells; assay: Effect on cell migration, U-373MG; type: cell-based; conditions: Homo sapiens, U373 MG, 22 hours on the 25% of most motile cells, p value in same cell, read-out: Maximum effects (cell migration); for Emax at 1 µM: at 10^−6 M
Method: as §7

[5] = tested on: human cancer cell lines PC3, U-373MG, BxPC3, LoVo, A549 and MCF-7; assay: MTT test, effect on overall cell growth (mean of six cell lines, examples 27 to 45); type: cell-based; conditions: mean of six cell lines PC3, U-373MG, A549, MCF-7, 72 hours incubation, range of molar concentrations resulting in 50% inhibition of overall tumor cells growth
Method: as §1, §2, §3, §4, §5, §6

[6] = tested on: multidrug resistant tumors; conditions: in vitro; U.S. Pat. No. 5,635,506; cited from earlier work
[7] = tested on: human Myeloma 8226/DOX 40 cell line; conditions: U.S. Pat. No. 5,635,506; cited from earlier work
tumors = conditions: mice; compared with amonafide; U.S. Pat. No. 5,635,506; cited from earlier work
[8] = compared with amonafide; U.S. Pat. No. 5,635,506; cited from earlier work

Row | Compound | IC50 [1] [µM] | Emax at 0.01 µM [2] [%] | migration level of cancer cells [3] | cell migration activity compared with the closest compounds known in the art [3] | melting point [°C] | Emax at 1 µM [4] [%] | Emax at 1 µM [2] [%] | also measured
1 | CN(C)CCN1C(=O)c2cccc3cc4c(N=Cc5cc(O)ccc5O)cccc4c(c23)C1=O (stereo in doubt) [Example 6, 8-{[(1Z)-(2,5-dihydroxyphenyl)methylidene]amino}-2-[2-(dimethylamino)ethyl]-1H-dibenzo[de,h]isoquinoline-1,3(2H)-dione] | 1 to 5 | -24 | induced a decrease in the migration level | significantly greater cell migration activity than the closest compounds known in the art, or similar cell migration activity at significantly lower concentrations | 205 |  |  | Emax at 0.01 µM (A549 (Lung cancer) cells): -29%
2 | CN(C)CCN1C(=O)c2cccc3cc4cccc(/N=C\c5cc(O)ccc5O)c4c(c23)C1=O [Example 5, 11-{[(1Z)-(2,5-dihydroxyphenyl)methylidene}amino]-2-[2-(dimethylamino)ethyl]-1H-dibenzo[de,h]isoquinoline-1,3(2H)-dione] | > 10 |  | induced a decrease in the migration level | significantly greater cell migration activity than the closest compounds known in the art, or similar cell migration activity at significantly lower concentrations | 225 |  |  | Emax at 0.01 µM (A549 (Lung cancer) cells): -47%
3 | CN(C)CCN1C(=O)c2cccc3cc4cccc(/N=C\c5ccc6c(c5)OCO6)c4c(c23)C1=O [Example 7, 11-{[(1Z)-1,3-benzodioxol-5-ylmethylidene]amino}-2-[2-(dimethylamino)ethyl]-1H-dibenzo[de,h]isoquinoline-1,3(2H)-dione] | > 10 |  | induced a decrease in the migration level |  | 198 |  |  | Emax at 1 µM (A549 (Lung cancer) cells; 22 hours on the 100% of cells, at 10^−6 M): -20%
4 | CN(C)CCN1C(=O)c2cccc3cc4c(/N=C/c5ccc6c(c5)OCO6)cccc4c(c23)C1=O [Example 8, 8-{[(1E)-1,3-benzodioxol-5-ylmethylidene]amino}-2-[2-(dimethylamino)ethyl]-1H-dibenzo[de,h]isoquinoline-1,3(2H)-dione] | 1 to 5 | -29 | induced a decrease in the migration level | significantly greater cell migration activity than the closest compounds known in the art, or similar cell migration activity at significantly lower concentrations |  | -30 |  | 
5 | CN(C)CCN1C(=O)c2cccc3cc4cccc(NC(=O)Cc5ccc(Cl)cc5)c4c(c23)C1=O [Example 11, 2-(4-chlorophenyl)-N-{2-[2-(dimethylamino)ethyl]-1,3-dioxo-2,3-dihydro-1H-dibenzo[de,h]isoquinolin-11-yl}acetamide] | > 10 |  | induced a decrease in the migration level | significantly greater cell migration activity than the closest compounds known in the art, or similar cell migration activity at significantly lower concentrations |  | -18 | -37 | Emax at 0.1 µM ([2]; at 10^−7 M): -27%
6 | CCCCCNC(=O)Nc1cccc2cc3cccc4c3c(c12)C(=O)N(CCN(C)C)C4=O [Example 13, 1-{2-[2-(dimethylamino)ethyl]-1,3-dioxo-2,3-dihydro-1H-dibenzo[de,h]isoquinolin-11-yl}-3-pentylurea] | 5 to 10 | -43 | induced a decrease in the migration level | significantly greater cell migration activity than the closest compounds known in the art, or similar cell migration activity at significantly lower concentrations |  |  |  | Emax at 0.1 µM ([4]; at 10^−7 M): -24%
7 | CCCCCCCCOC(=O)Nc1cccc2cc3cccc4c3c(c12)C(=O)N(CCN(C)C)C4=O [Example 25, octyl {2-[2-(dimethylamino)ethyl]-1,3-dioxo-2,3-dihydro-1H-dibenzo[de,h]isoquinolin-11-yl}carbamate] | 5 to 10 | -21 | induced a decrease in the migration level |  |  |  |  | Emax at 0.1 µM (A549 (Lung cancer) cells): -28%
8 | CCCCOC(=O)Nc1cccc2cc3cccc4c3c(c12)C(=O)N(CCN(C)C)C4=O [Example 29, n-butyl {2-[2-(dimethylamino)ethyl]-1,3-dioxo-2,3-dihydro-1H-dibenzo[de,h]isoquinolin-11-yl}carbamate] |  |  | induced a decrease in the migration level | significantly greater cell migration activity than the closest compounds known in the art, or similar cell migration activity at significantly lower concentrations |  |  | -22 | IC50 [5]: > 10 µM; Emax at 0.1 µM (A549 (Lung cancer) cells): -33%
9 | CN(C)CCN1C(=O)c2cccc3cc4cccc(NC(=S)Nc5ccc(OC(F)(F)F)cc5)c4c(c23)C1=O [Example 31, 1-{2-[2-(dimethylamino)ethyl]-1,3-dioxo-2,3-dihydro-1H-dibenzo[de,h]isoquinolin-11-yl}-3-[4-(trifluoromethoxy)phenyl]thiourea] |  |  | induced a decrease in the migration level | significantly greater cell migration activity than the closest compounds known in the art, or similar cell migration activity at significantly lower concentrations |  | -60 | -30 | IC50 [5]: > 10 µM
10 | CN(C)CCN1C(=O)c2cccc3cc4ccccc4c(c23)C1=O [azonafide, 2-[2′-(dimethylamino)ethyl]-1,2-dihydro-3H-dibenz(deh)isoquinoline-1,3-dione] |  |  |  |  |  |  |  | anti-tumor activity on multidrug resistant tumors [6]: showed anti-tumor activity; cross resistance [7]: possible three-fold cross resistance; appearance of tumors and tumor growth (tumors): delay the appearance of tumors and to reduce tumor growth in mice with more efficiency than amonafide; cardiotoxicity [8]: higher cardiotoxicity than amonafide
